Results on one compound are retold here after ChEMBL document CHEMBL1151353, “Normaytansine, a new antileukemic ansa macrolide from Maytenus buchananii” (1980).

A word on the T/C: it is the result in the treated group divided by that in the control group, in per cent.

In experiment [1] the test system is P388. Description: In vivo antitumor activity against mouse P388 cells in mouse at 100 mg/kg relative to control. The format is functional.
Experiment [2] relates to KB. As to the kind of experiment: Cytotoxicity against human KB cells. Particulars: read-out: ED50 (the source's name). The format is functional.

Structures are written as SMILES. ≈ marks a conversion by molar mass, not a printed value.

In experiment [1], `COc1cc2cc(c1Cl)NC(=O)C[C@H](OC(=O)[C@H](C)N(C)C(C)=O)[C@]1(C)O[C@H]1[C@H](C)[C@@H]1C[C@@](O)(NC(=O)O1)[C@H](OC)/C=C/C=C(\C)C2` [NORMAYTANSINE] had a T/C of 181%. The EC50 in experiment [2] stood at 1 ng/mL (≈ 1.47 nM).
